The subject of data set [1] is MCF-7 breast cancer cell line. The experiment in a line: Cytostatic effect, CellTiter-Glo luminescent cell viability assay. To be noted: MCF-7, Southern Research Institute, FIG. 4. The format is cell-based, human. How it is done:
(§1) The anti-proliferative activity of GM-4-53 on two additional cell lines was evaluated at the Southern Research Institute (SRI, Birmingham, Alabama, USA). There, the human MCF-7 breast cancer cell line was purchased from the NCI. The human Ishikawa endometrial cancer cell line was purchased from Sigma Aldrich. Both cell lines were cultured in phenol red-free RPMI-1640 (Hyclone) (500 mL), supplemented with L-glutamine-dipeptide (Hyclone) (5 mL), and 10% fetal bovine serum (Atlanta Biologicals) (50 mL).
(§2) For MDA-MB-231 cells, both paclitaxel and GM-4-53 were dissolved in DMSO and […]. A stock solution for both compounds was prepped in HBSS. In brief, 96-well plates were seeded with cells (0.04×10^5/well) to a volume of 200 μL, to which drugs were added, and cell proliferation (as cell count) was evaluated at a 6-day endpoint, using Alamar blue. […] Samples were returned to the incubator for 4-6 h, and the reduction in the dye (to resorufin, a fluorescent compound) caused by viable cells was quantitatively analyzed using a Synergy HTX multi-mode reader (Bio-Tek, Winooski, VT, USA), with excitation/emission wavelength settings at 550 nm/580 nm. Cell count was evaluated as % control, and the inhibitory growth (IG50) value was calculated by regression analysis. […] Luminescence results were read on TriLux Luminometer. […]
(In ATP-based viability assays light output follows the ATP content of the culture.)

Data set [2] concerns Ishikawa endometrial cancer cell line. Described as above. The format is cell-based, human. To be noted: Southern Research Institute, FIG. 4. Here is the method:
as §1, §2

The subject of data set [3] is MDA-MB-231 cells. Briefly: Cytotoxicity assay at high plating density, 24-36 h. To be noted: 36-hour toxicity assay, equal drug concentrations, 0.5×10^5 cells/well. Type of data set: cell-based, human. How it is done: (§3) For MDA-MB-231 cells, both paclitaxel and GM-4-53 were dissolved in DMSO and […]. A stock solution for both compounds was prepped in HBSS. In brief, 96-well plates were seeded with cells (0.04×10^5/well) to a volume of 200 μL, to which drugs were added, and cell proliferation (as cell count) was evaluated at a 6-day endpoint, using Alamar blue. For Alamar blue testing, a working solution of resazurin prepared in sterile phosphate-buffered saline (PBS)-phenol red (0.5 mg/mL) was added (15% v/v) to each sample in a 96-well plate. Samples were returned to the incubator for 4-6 h, and the reduction in the dye (to resorufin, a fluorescent compound) caused by viable cells was quantitatively analyzed using a Synergy HTX multi-mode reader (Bio-Tek, Winooski, VT, USA), with excitation/emission wavelength settings at 550 nm/580 nm. Cell count was evaluated as % control, and the inhibitory growth (IG50) value was calculated by regression analysis. […] The cytostatic effects of MCF-7 and Ishikawa cell lines were determined using the CellTiter-Glo (CTG) luminescent cell viability assay, which is based on the direct determination of intracellular ATP level (determining the number of viable cells in culture based on the quantification of ATP present), which signals the presence of metabolically active cells. Luminescence results were read on TriLux Luminometer. […]

In data set [4] the test system is MDA-MB-231 cells. Briefly: 2D imaging of cytoskeletal morphology (phalloidin/propidium iodide). The format is cell-based, human. To be noted: day 6; GM-4-53 5 μg/mL, paclitaxel 1 μg/mL. How it is done:
(§4) 2D cell cultures were imaged to ascertain changes in morphological structure at the 6-day endpoint in MDA-MB-231 cells in the presence or absence of treatments. In brief, cells were fixed in 4% paraformaldehyde and incubated at 37° C. in 5% CO2/atmosphere for 15 min. After delicate removal of paraformaldehyde, sterile ultra-pure biological grade water containing 0.2% Triton X-100 was gently added to each well (100 uL) and returned to the incubator for 45 min. After gentle removal, a PBS solution containing propidium iodide (1 μg/mL) and Phalloidin-iFluor 488 Reagent (ab176753) was added to each well, according to the manufacturer's instructions Abcam (Cambridge, MA, USA), and images were captured on an inverted fluorescent microscope using the 10× and 25× fluo-objectives. 3D tumors were stained with fluorescein diacetate (live-cell dye) and countered imaged for morphology.

Another data set can be described thus: Solubility. Type of data set: physicochemical.
The subject of data set [5] is MDA-MB-231 cells. The experiment in a line: Whole-transcriptome microarray (WT 2.1 Human), differentially expressed genes. Particulars: 36 h; for ID1, ID3 and ID4 transcripts: GM-4-53 more significant effects than paclitaxel; for DEGs shared by both drugs (overlap) / down-regulated DEGs vs. controls / upregulated DEGs vs. controls / differentially expressed genes (DEGs) of 48,226 genes analyzed: paclitaxel 1 μg/mL, GM-4-53 5 μg/mL; for differentially expressed genes (DEGs) of 48,226 genes analyzed: FC >2 or <−2, p and FDR p <0.05. The format is cell-based. Here is the method:
For MDA-MB-231 cells, both paclitaxel and GM-4-53 were dissolved in DMSO and […]. A stock solution for both compounds was prepped in HBSS. In brief, 96-well plates were seeded with cells (0.04×10^5/well) to a volume of 200 μL, to which drugs were added, and cell proliferation (as cell count) was evaluated at a 6-day endpoint, using Alamar blue. For Alamar blue testing, a working solution of resazurin prepared in sterile phosphate-buffered saline (PBS)-phenol red (0.5 mg/mL) was added (15% v/v) to each sample in a 96-well plate. Samples were returned to the incubator for 4-6 h, and the reduction in the dye (to resorufin, a fluorescent compound) caused by viable cells was quantitatively analyzed using a Synergy HTX multi-mode reader (Bio-Tek, Winooski, VT, USA), with excitation/emission wavelength settings at 550 nm/580 nm. Cell count was evaluated as % control, and the inhibitory growth (IG50) value was calculated by regression analysis. Cytotoxicity studies were carried out at equal dose concentrations as proliferation studies at a higher plating density (0.5×10^5/well), over 24-36 h. The cytostatic effects of MCF-7 and Ishikawa cell lines were determined using the CellTiter-Glo (CTG) luminescent cell viability assay, which is based on the direct determination of intracellular ATP level (determining the number of viable cells in culture based on the quantification of ATP present), which signals the presence of metabolically active cells. Luminescence results were read on TriLux Luminometer. Optimal concentrations for microarray were established by a lack of cell toxicity, at a concentration showing a complete blockage of cell proliferation; paclitaxel (1 μg/mL) and GM-4-53 (5 μg/mL). For microarray studies, cells were plated and treated in […] flasks for 36 h.
After the experimental 36-hour time point, the cells were scraped, washed three times in ice-cold HBSS, spun down, the supernatant removed, and the remaining pellet was rapidly frozen and stored at −80° C. Total RNA was isolated and purified using the Trizol/chloroform method. The RNA quality was assessed, and concentrations were equalized to 82 ng/μI in nuclease-free water. According to the GeneChip™ WT PLUS Reagent Manual for Whole Transcript (WT) expression arrays, whole transcriptome analysis was conducted. Briefly, RNA was reverse transcribed to first strand/second strand […]. The cRNA was purified and assessed for yield before the second cycle single-stranded cDNA synthesis, hydrolysis of RNA, and purification of the second cycle single-stranded cDNA. Subsequently, cDNA was assessed for yield, fragmented, labeled, and hybridized onto the arrays before being subjected to fluidics and imaging using the Gene Atlas (Affymetrix, ThermoFisher Scientific). The array data, quality control, and initial processing from CEL to CHP files were conducted using an expression console before data evaluation using the Affymetrix transcriptome analysis console (Wiki/Kegg pathways) and protein-protein interaction (PPI) String Database (String Consortium 2020)^1. The dataset has been deposited to NIH Gene Expression OmniBus.

Data set [6] has as its system triple negative breast cancer (TNBC). The experiment in a line: Treatment of a TNBC patient (Example 1). The format is in vivo, human. Particulars: therapeutically effective amount. Here is the method: A patient presents with a lump in their left breast. A biopsy of the mass is performed and the cells are found to lack estrogen or progesterone receptors and HER2 protein thus confirming a diagnosis of triple negative breast cancer (TNBC). The patient is administered a therapeutically effective amount of 4-Ethyl-N-(7-hydroxy-3,4-dihydroisoquinolin-2(1H)-yl) benzamide (GM-4-53) for a time period sufficient to inhibit cell proliferation. The patient is tested at regular intervals while the drug is being administered as well as after administration has stopped.

Data set [7] concerns MDA-MB-231 cells. The experiment in a line: 3D tumor spheroid study. Type of data set: cell-based, human. Particulars: GM-4-53 5 μg/mL, paclitaxel 1 μg/mL; drugs added day 14, images day 24. How it is done: MDA-MB-231 cells were plated in low-adhesion, round-bottom, sterile, 96-well plates at a cell density of (0.2×10^5/well), in 200 uL of cell culture media centrifuged at 1800×g for 3 min prior to incubation at 37° C. in 5% C02/atmosphere. For the first 3 days, cells were taken out and re-centrifuged at 1800×g×3 min. 3D spheroids were left to grow for 10 days. On day 14, experimental drugs were added, and images were captured on day 24.
as §4

The subject of another data set is tubulin. The experiment in a line: Tubulin polymerization/depolymerization. The format is biochemical.
Data set [8] has as its system MDA-MB-231 cells. Briefly: Cell proliferation (cell count), 6-day endpoint, Alamar blue. Type of data set: cell-based, human. To be noted: for concentration showing a complete blockage of cell proliferation with lack of cell toxicity: MDA-MB-231, chosen for microarray. Here is the method:
MDA-MB-231 cells (ATCC® HTB-26™) were used. These cells are human triple negative breast cancer cells, which we obtained from American Type Culture Collection (ATCC) (Manassas, VA, USA). MDA-MB-231 cells were initially brought up in ATCC-formulated Leibowitz's L-15 medium, supplemented with 10% fetal bovine serum (FBS) and penicillin/streptomycin (100 U/0.1 mg/ml). After confluence, the cells were sub-cultured and grown in Dulbecco's modified Eagle's medium (DMEM) containing phenol red, 7.5% FBS, 4 mM L-glutamine, 20 μM sodium pyruvate, and penicillin/streptomycin (100 U/0.1 mg/ml). Cells were maintained at 37° C. in 5% C02/atmosphere, and every 2-5 days, the medium was replaced and cells sub-cultured. The growth medium was used for all experiments conducted herein.
as §3, with “For Alamar blue testing, a working solution of resazurin prepared in sterile phosphate-buffered saline (PBS)-phenol red (0.5 mg/mL) was added (15% v/v) to each sample in a 96-well plate.” left out
Background: Alamar Blue is a resazurin reagent that responds to reducing activity.

The structures appear in SMILES notation.

With `CCc1ccc(C(=O)NN2CCc3ccc(O)cc3C2)cc1` [GM-4-53, 4-Ethyl-N-(7-hydroxy-3,4-dihydroisoquinolin-2(1H)-yl)benzamide], the “IG50 (cytostatic growth-inhibitory effect)” value in data set [1] is given as “mid-to-high”. The “IG50 (cytostatic growth-inhibitory effect)” value in data set [2] was “mid-to-high”. Moreover, the cytotoxic effects result in the data set on MDA-MB-231 cells [3] is “no cytotoxic effects”. The “morphological changes of actin cytoskeleton” value in the data set on MDA-MB-231 cells [4] is given as “abnormally large-shaped extended actin networks”. Further, the solubility entry in the data set “Solubility” is given as “excellent solubility”. Also, in the data set on MDA-MB-231 cells [5], the “amphiregulin (AREG) and epiregulin (EREG) mRNA” value is reported as “significantly downregulated”; the “expression of COX2” value was “downregulated the expression”; the “expression of ICAM-1” value is “reduced the expression”; the “ID1, ID3 and ID4 transcripts” value is “pronounced downregulation”. Besides, in the data set with MDA-MB-231 cells [5], the “DEGs shared by both drugs (overlap)” value turned out to be 52, the “down-regulated DEGs vs. controls” value worked out at 168, the “upregulated DEGs vs. controls” value is recorded as 75 and the “differentially expressed genes (DEGs) of 48,226 genes analyzed” value is 243. Besides, the “oncogenic transcription factors (FOS, JUN-b, NFKB1a) driving oncostatin M (OSM) signaling” value in the data set with MDA-MB-231 cells [5] (vs untreated controls) is listed as “general loss”. In the data set with MDA-MB-231 cells [5] (greater extent in GM-4-53), the KLRC3 transcript entry is recorded as “loss of the KLRC3 transcript”. The patient outcome in data set [6] is on record as “deemed in remission”. In addition, in the data set on MDA-MB-231 cells [7], the “effect on 3D tumor spheroid” value is “halts the growth and appears to penetrate the tumor core”. For the same compound, in the data set on tubulin, the “effect on tubulin nucleation” value was “only mild effects” and the “effect on tubulin polymerization/depolymerization processes” value is listed as “failed to show any effect”. In the data set on MDA-MB-231 cells [8] (Homo sapiens, 144 h, MDA-MB-231, 6-day growth study, regression analysis, read-out: anti-proliferative IG50 growth inhibitory concentration), the IC50 came out at 0.261 µM. The “concentration showing a complete blockage of cell proliferation with lack of cell toxicity” value in the data set with MDA-MB-231 cells [8] was determined as 5 µg/mL.
For `CC(=O)O[C@H]1C(=O)[C@@]2(C)[C@H]([C@H](OC(=O)c3ccccc3)[C@]3(O)C[C@H](OC(=O)[C@H](O)[C@@H](NC(=O)c4ccccc4)c4ccccc4)C(C)=C1C3(C)C)[C@]1(OC(C)=O)CO[C@@H]1C[C@@H]2O` [paclitaxel, reference compound], the cytotoxic effects entry in the data set with MDA-MB-231 cells [3] is on record as “no cytotoxic effects”. For the same compound, the “morphological changes of actin cytoskeleton” value in the data set on MDA-MB-231 cells [4] is given as “abnormally large-shaped extended actin networks”. Further, in the data set with MDA-MB-231 cells [5], the “amphiregulin (AREG) and epiregulin (EREG) mRNA” value is given as “significantly downregulated”; the “expression of COX2” value is listed as “downregulated the expression”; the “expression of ICAM-1” value is listed as “reduced the expression”; the “ID1, ID3 and ID4 transcripts” value is “pronounced downregulation”. In the data set on MDA-MB-231 cells [5], the “DEGs shared by both drugs (overlap)” value is given as 52, the “down-regulated DEGs vs. controls” value was 45, the “upregulated DEGs vs. controls” value is 108 and the “differentially expressed genes (DEGs) of 48,226 genes analyzed” value was determined as 153. Besides, the “effect on 3D tumor spheroid” value in the data set with MDA-MB-231 cells [7] was “halt the growth of the spheroid and central core”. In addition, in the data set with MDA-MB-231 cells [8], the “concentration showing a complete blockage of cell proliferation with lack of cell toxicity” value came out at 1 µg/mL.

For the origin of these results see patent publication US11839609B1, “Substituted tetrahydroisoquinolines as anti-mitotic drug in triple negative breast cancer” (Florida A&M University, priority 2021, dated 2023).
